melting point | SMILES
> 295 °C | Cl.Cl.NC(=O)c1sc2nccc(N3CCCNCC3)c2c1N
270 to 280 °C | Cl.Cl.NC(=O)c1sc2nccc(N3CCNCC3)c2c1N
285 to 288 °C | NC(=O)c1sc2nccc(N3CC[C@@H]4CCCC[C@H]4C3)c2c1N (relative stereo) [Example 28, 3-amino-4-(trans-perhydroisoquinolin-2-yl)thieno[2,3-b]pyridine-2-carboxamide]
275 to 283 °C | NC(=O)c1sc2nccc(N3CCCC3)c2c1N [Example 13, 3-amino-4-pyrrolidin-1-ylthieno[2,3-b]pyridine-2-carboxamide]
252 to 254 °C | CC1CCN(c2ccnc3sc(C(N)=O)c(N)c23)CC1 [Example 15, 3-amino-4-(4-methylpiperidin-1-yl)thieno[2,3-b]pyridine-2-carboxamide]
239 to 241 °C | NC(=O)c1sc2nccc(N3CCC(O)CC3)c2c1N [Example 19, 3-amino-4-(4-hydroxypiperidin-1-yl)thieno[2,3-b]pyridine-2-carboxamide]
232 to 234 °C | NC(=O)c1sc2nccc(N3CCOCC3)c2c1N [Example 22, 3-amino-4-morpholin-4-ylthieno[2,3-b]pyridine-2-carboxamide]
219 to 221 °C | NC(=O)c1sc2nccc(N3CCCCCC3)c2c1N [Example 25, 3-amino-4-azepan-1-ylthieno[2,3-b]pyridine-2-carboxamide]
222 to 224 °C | NC(=O)c1sc2nccc(N3CCCCCCC3)c2c1N [Example 26, 3-amino-4-azocan-1-ylthieno[2,3-b]pyridine-2-carboxamide]
175 to 176 °C | NC(=O)c1sc2nccc(N3CCCOCC3)c2c1N [Example 30, 3-amino-4-(1,4-oxazepan-4-yl)thieno[2,3-b]pyridine-2-carboxamide]
165 to 172 °C | NC(=O)c1sc2nccc(N3CC[S+]([O-])CC3)c2c1N [Example 32, 3-amino-4-(1-oxothiomorpholine-4-yl)thieno[2,3-b]pyridine-2-carboxamide]
171 to 174 °C | NC(=O)c1sc2nccc(N3CCCSCC3)c2c1N [Example 33, 3-amino-4-(1,4-thiazepan-4-yl)thieno[2,3-b]pyridine-2-carboxamide]
111 to 119 °C | NC(=O)c1sc2nccc(N3CCC[S+]([O-])CC3)c2c1N (centres unmarked) [Example 34, 3-amino-4-(1-oxo-1,4-thiazepan-4-yl)thieno[2,3-b]pyridine-2-carboxamide]
208 to 211 °C | NC(=O)c1sc2nccc(N3CCCC(O)C3)c2c1N (centres unmarked) [Example 36, 3-amino-4-(3-hydroxypiperidin-1-yl)thieno[2,3-b]pyridine-2-carboxamide]
260 to 263 °C | CN1CCN(c2ccnc3sc(C(N)=O)c(N)c23)CC1 [Example 39, 3-amino-4-(4-methylpiperazin-1-yl)thieno[2,3-b]pyridine-2-carboxamide]
218 to 219 °C | CCN1CCN(c2ccnc3sc(C(N)=O)c(N)c23)CC1 [Example 40, 3-amino-4-(4-ethylpiperazin-1-yl)thieno[2,3-b]pyridine-2-carboxamide]
240 to 243 °C | CC(C)N1CCN(c2ccnc3sc(C(N)=O)c(N)c23)CC1 [Example 41, 3-amino-4-(4-isopropylpiperazin-1-yl)thieno[2,3-b]pyridine-2-carboxamide]
280 °C (dec.) | NC(=O)c1sc2nccc(N3CCN(c4ncccn4)CC3)c2c1N [Example 44, 3-amino-4-(4-pyrimidin-2-ylpiperazin-1-yl)thieno[2,3-b]pyridine-2-carboxamide]
177 to 178 °C | CC(C)(C)OC(=O)N1CCCN(c2ccnc3sc(C(N)=O)c(N)c23)CC1 [Example 55, tert-butyl 4-[3-amino-2-(aminocarbonyl)thieno[2,3-b]pyridin-4-yl]-1,4-diazepane-1-carboxylate]

The remaining lines, values behind:

SMILES | melting point
CCN(CC)c1ccnc2sc(C(N)=O)c(N)c12 [Example 2, 3-amino-4-(diethylamino)thieno[2,3-b]pyridine-2-carboxamide] | 127 to 129 °C
Cc1cc(N(C)C)c2c(N)c(C(N)=O)sc2n1 [Example 3, 3-amino-4-(dimethylamino)-6-methylthieno[2,3-b]pyridine-2-carboxamide] | 167 to 170 °C
CCCNc1ccnc2sc(C(N)=O)c(N)c12 [Example 4, 3-amino-4-(propylamino)thieno[2,3-b]pyridine-2-carboxamide] | 214 to 215 °C
CC(C)CNc1ccnc2sc(C(N)=O)c(N)c12 [Example 5, 3-amino-4-(isobutylamino)thieno[2,3-b]pyridine-2-carboxamide] | 117 to 119 °C
CC(C)(C)CNc1ccnc2sc(C(N)=O)c(N)c12 [Example 6, 3-amino-4-(neopentylamino)thieno[2,3-b]pyridine-2-carboxamide] | 238 to 240 °C
NC(=O)c1sc2nccc(NCc3ccccc3)c2c1N [Example 7, 3-amino-4-(benzylamino)thieno[2,3-b]pyridine-2-carboxamide] | 260 to 262 °C
NC(=O)c1sc2nccc(NCCCc3ccccc3)c2c1N [Example 9, 3-amino-4-[(3-phenylpropyl)amino]thieno[2,3-b]pyridine-2-carboxamide] | 232 to 234 °C
NC(=O)c1sc2nccc(NC3CCCCC3)c2c1N [Example 11, 3-amino-4-(cyclohexylamino)thieno[2,3-b]pyridine-2-carboxamide] | 244 to 247 °C
NC(=O)c1sc2nccc(NC3CCCCCC3)c2c1N [Example 12, 3-amino-4-(cycloheptylamino)thieno[2,3-b]pyridine-2-carboxamide] | 206 to 208 °C
NC(=O)c1sc2nccc(N3CCC(Cc4ccccc4)CC3)c2c1N [Example 18, 3-amino-4-(4-benzylpiperidin-1-yl)thieno[2,3-b]pyridine-2-carboxamide] | 220 to 221 °C
CC(=O)OC1CCN(c2ccnc3sc(C(N)=O)c(N)c23)CC1 [Example 20, 3-amino-4-(4-acetoxypiperidin-1-yl)thieno[2,3-b]pyridine-2-carboxamide] | 231 to 235 °C
NC(=O)c1sc2nccc(N3CC=C(c4ccccc4)CC3)c2c1N [Example 21, 3-amino-4-(4-phenyl-3,6-dihydropyridin-1(2H)-yl)thieno[2,3-b]pyridine-2-carboxamide] | 235 °C (dec.)
C[C@@H]1CN(c2ccnc3sc(C(N)=O)c(N)c23)C[C@H](C)O1 [Example 23, 3-amino-4-(cis-2,6-dimethylmorpholin-4-yl)thieno[2,3-b]pyridine-2-carboxamide] | 242 to 244 °C
NC(=O)c1sc2nccc(N3CCc4ccccc4C3)c2c1N [Example 27, 3-amino-4-(3,4-dihydroisoquinoline-2(1H)-yl)thieno[2,3-b]pyridine-2-carboxamide] | 244 to 245 °C
NC(=O)c1sc2nccc(N3CCC(c4ccccc4)CC3)c2c1N [Example 31, 3-amino-4-(4-phenylpiperidin-1-yl)thieno[2,3-b]pyridine-2-carboxamide] | 226 to 233 °C
NC(=O)c1sc2nccc(N3CCCC(c4ccccc4)C3)c2c1N (centres unmarked) [Example 35, 3-amino-4-(3-phenylpiperidin-1-yl)thieno[2,3-b]pyridine-2-carboxamide] | 267 to 269 °C
CC(C)(C)OC(=O)N1CCN(c2ccnc3sc(C(N)=O)c(N)c23)CC1 [Example 37, tert-butyl 4-[3-amino-2-(aminocarbonyl)thieno[2,3-b]pyridin-4-yl]piperazine-1-carboxylate] | 198 to 203 °C
NC(=O)c1sc2nccc(N3CCN(c4ccccc4)CC3)c2c1N [Example 42, 3-amino-4-(4-phenylpiperazin-1-yl)thieno[2,3-b]pyridine-2-carboxamide] | 250 to 252 °C
NC(=O)c1sc2nccc(N3CCN(Cc4ccccc4)CC3)c2c1N [Example 43, 3-amino-4-(4-benzylpiperazin-1-yl)thieno[2,3-b]pyridine-2-carboxamide] | 241 to 242 °C
NC(=O)c1sc2nccc(N3CCN(c4ccccn4)CC3)c2c1N [Example 45, 3-amino-4-(4-pyridin-2-ylpiperazin-1-yl)thieno[2,3-b]pyridine-2-carboxamide] | 266 to 270 °C
Cc1ccc(N2CCN(c3ccnc4sc(C(N)=O)c(N)c34)CC2)cc1 [Example 46, 3-amino-4-[4-(4-methylphenyl)piperazin-1-yl]thieno[2,3-b]pyridine-2-carboxamide] | 270 °C (dec.)
NC(=O)c1sc2nccc(N3CCN(c4ccc(F)cc4)CC3)c2c1N [Example 47, 3-amino-4-[4-(4-fluorophenyl)piperazin-1-yl]thieno[2,3-b]pyridine-2-carboxamide] | 275 °C (dec.)
NC(=O)c1sc2nccc(N3CCN(C(c4ccccc4)c4ccccc4)CC3)c2c1N [Example 48, 3-amino-4-(4-benzhydrylpiperazin-1-yl)thieno[2,3-b]pyridine-2-carboxamide] | 225 to 233 °C
COc1ccc(N2CCN(c3ccnc4sc(C(N)=O)c(N)c34)CC2)cc1 [Example 49, 3-amino-4-[4-(4-methoxyphenyl)piperazin-1-yl]thieno[2,3-b]pyridine-2-carboxamide] | 275 °C (dec.)
NC(=O)c1sc2nccc(N3CCN(C(=O)c4ccccc4)CC3)c2c1N [Example 51, 3-amino-4-(4-benzoylpiperazin-1-yl)thieno[2,3-b]pyridine-2-carboxamide] | > 300 °C
NC(=O)c1sc2nccc(N3CCN(c4ccc(Cl)cc4)CC3)c2c1N [Example 52, 3-amino-4-[4-(4-chlorophenyl)piperazin-1-yl]thieno[2,3-b]pyridine-2-carboxamide] | 297 °C (dec.)
COc1ccccc1N1CCN(c2ccnc3sc(C(N)=O)c(N)c23)CC1 [Example 53, 3-amino-4-[4-(2-methoxyphenyl)piperazin-1-yl]thieno[2,3-b]pyridine-2-carboxamide] | 294 °C (dec.)
NC(=O)c1sc2nccc(N3CCN(c4ccccc4Cl)CC3)c2c1N [Example 54, 3-amino-4-[4-(2-chlorophenyl)piperazin-1-yl]thieno[2,3-b]pyridine-2-carboxamide] | 294 to 298 °C (dec.)

Reference: patent publication US20070219234A1, “Thienopyridine Derivatives” (priority 2004, published 2007)
